Converted amounts (≈) assume the structure as drawn.
Tests used:
[1] = tested on: Pichia kudriavzevii; test: Antifungal activity against Candida krusei E28 after 48 hrs by broth microdilution method; assay type: functional; conditions: E28, 48 h
[2] = tested on: Staphylococcus epidermidis; test: Antibacterial activity against Staphylococcus epidermidis H 6966/08 after 24 hrs by broth microdilution method; assay type: functional; conditions: H 6966/08, 24 h
[3] = tested on: Staphylococcus aureus; test: Antibacterial activity against Staphylococcus aureus ATCC 6538 after 48 hrs by broth microdilution method; assay type: functional; conditions: ATCC 6538, 48 h
[4] = tested on: Lichtheimia corymbifera; test: Antifungal activity against Absidia corymbifera 272 after 48 hrs by broth microdilution method; assay type: functional, organism-based; conditions: Lichtheimia corymbifera, 272, 48 h
[5] = Cytotoxicity against MDCK2 cells assessed as cell viability at 30 uM after 48 hrs by MTT assay; assay type: cell-based, Canis lupus familiaris, MDCK-II; conditions: dog, read-out: Activity
[6] = tested on: Staphylococcus aureus; test: Antibacterial activity against methicillin-resistant Staphylococcus aureus H 5996/08 after 24 hrs by broth microdilution method; assay type: functional; conditions: H 5996/08, 24 h
[7] = Cytotoxicity against human HuH7 cells assessed as reduction in cell viability after 48 hrs by MTT assay; assay type: cell-based; conditions: Huh-7, 48 h
[8] = Cytotoxicity against MDCK2 cells assessed as reduction in cell viability after 48 hrs by MTT assay; assay type: cell-based; conditions: Canis lupus familiaris, MDCK-II
[9] = tested on: Candida tropicalis; test: Antifungal activity against Candida tropicalis 156 after 24 hrs by broth microdilution method; assay type: functional; conditions: Candida tropicalis, 156, 24 h
[10] = tested on: Klebsiella pneumoniae; test: Antibacterial activity against extended spectrum beta-lactamase producing Klebsiella pneumoniae J 14368/08 after 48 hrs by broth microdilution method; assay type: functional; conditions: J 14368/08, 48 h
[11] = Cytotoxicity against human HuH7 cells assessed as cell viability at 30 uM after 48 hrs by MTT assay; assay type: cell-based, Huh-7; conditions: read-out: Activity
[12] = tested on: Trichosporon asahii; test: Antifungal activity against Trichosporon asahii 1188 after 24 hrs by broth microdilution method; assay type: functional; conditions: Trichosporon asahii, 1188, 24 h
[13] = tested on: Escherichia coli; test: Antibacterial activity against Escherichia coli ATCC 8739 after 24 hrs by broth microdilution method; assay type: functional; conditions: ATCC 8739, ATCC 8739, 24 h
[14] = tested on: HepG2; test: Cytotoxicity against human HepG2 cells assessed as reduction in cell viability after 48 hrs by MTT assay; assay type: cell-based; conditions: HepG2, 48 h
[15] = tested on: Klebsiella pneumoniae; test: Antibacterial activity against Klebsiella pneumoniae D 11750/08 after 48 hrs by broth microdilution method; assay type: functional; conditions: D 11750/08, 48 h
[16] = tested on: Enterococcus faecalis; test: Antibacterial activity against Enterococcus faecalis J 14365/08 after 48 hrs by broth microdilution method; assay type: functional; conditions: J 14365/08, 48 h
[17] = tested on: Staphylococcus aureus; test: Antibacterial activity against methicillin-resistant Staphylococcus aureus H 5996/08 after 48 hrs by broth microdilution method; assay type: functional; conditions: H 5996/08, 48 h
[18] = tested on: Mycobacterium kansasii; test: Antimycobacterial activity against Mycobacterium kansasii 6509/96 after 14 days by micromethod; assay type: functional; conditions: 6509/96, 336 h
[19] = tested on: Aspergillus fumigatus; test: Antifungal activity against Aspergillus fumigatus 231 after 24 hrs by broth microdilution method; assay type: functional, organism-based; conditions: Aspergillus fumigatus, 231, 24 h
[20] = Cytotoxicity against human HeLa cells assessed as cell viability at 30 uM after 48 hrs by MTT assay; assay type: cell-based; conditions: read-out: Activity
[21] = tested on: Nakaseomyces glabratus; test: Antifungal activity against Candida glabrata 20/I after 24 hrs by broth microdilution method; assay type: functional
[22] = tested on: Staphylococcus epidermidis; test: Antibacterial activity against Staphylococcus epidermidis H 6966/08 after 48 hrs by broth microdilution method; assay type: functional; conditions: H 6966/08, 48 h
[23] = tested on: Candida tropicalis; test: Antifungal activity against Candida tropicalis 156 after 48 hrs by broth microdilution method; assay type: functional; conditions: Candida tropicalis, 156, 48 h
[24] = Cytotoxicity against human HepG2 cells assessed as cell viability at 30 uM after 48 hrs by MTT assay; assay type: cell-based; conditions: read-out: Activity
[25] = tested on: Mycobacterium tuberculosis; test: Antimycobacterial activity against Mycobacterium tuberculosis CNCTC My 331/88 after 14 days by micromethod; assay type: functional; conditions: CNCTC My 331/88, 336 h
[26] = tested on: Trichophyton mentagrophytes; test: Antifungal activity against Trichophyton mentagrophytes 445 after 72 hrs by broth microdilution method; assay type: functional, organism-based; conditions: Trichophyton mentagrophytes, 445, 72 h
[27] = tested on: Mycobacterium tuberculosis; test: Antimycobacterial activity against Mycobacterium tuberculosis CNCTC My 331/88 after 21 days by micromethod; assay type: functional; conditions: CNCTC My 331/88, 504 h
[28] = tested on: HeLa; test: Cytotoxicity against human HeLa cells assessed as reduction in cell viability after 48 hrs by MTT assay; assay type: cell-based
[29] = tested on: Aspergillus fumigatus; test: Antifungal activity against Aspergillus fumigatus 231 after 48 hrs by broth microdilution method; assay type: functional, organism-based; conditions: Aspergillus fumigatus, 231, 48 h
[30] = tested on: Candida albicans; test: Antifungal activity against Candida albicans ATCC 44859 after 48 hrs by broth microdilution method; assay type: functional; conditions: ATCC 44859, 48 h
[31] = tested on: Lichtheimia corymbifera; test: Antifungal activity against Absidia corymbifera 272 after 24 hrs by broth microdilution method; assay type: functional, organism-based; conditions: Lichtheimia corymbifera, 272, 24 h
[32] = tested on: Mycobacterium kansasii; test: Antimycobacterial activity against Mycobacterium kansasii 6509/96 after 7 days by micromethod; assay type: functional; conditions: 6509/96, 168 h
[33] = tested on: Trichosporon asahii; test: Antifungal activity against Trichosporon asahii 1188 after 48 hrs by broth microdilution method; assay type: functional; conditions: Trichosporon asahii, 1188, 48 h
[34] = tested on: Enterococcus faecalis; test: Antibacterial activity against Enterococcus faecalis J 14365/08 after 24 hrs by broth microdilution method; assay type: functional; conditions: J 14365/08, 24 h
[35] = tested on: Pseudomonas aeruginosa; test: Antibacterial activity against Pseudomonas aeruginosa ATCC 9027 after 24 hrs by broth microdilution method; assay type: functional; conditions: ATCC 9027, 24 h
[36] = tested on: Klebsiella pneumoniae; test: Antibacterial activity against Klebsiella pneumoniae D 11750/08 after 24 hrs by broth microdilution method; assay type: functional; conditions: D 11750/08, 24 h
[37] = tested on: Mycobacterium kansasii; test: Antimycobacterial activity against Mycobacterium kansasii CNCTC My 235/80 after 21 days by micromethod; assay type: functional; conditions: CNCTC My 235/80, 504 h
[38] = tested on: Trichophyton mentagrophytes; test: Antifungal activity against Trichophyton mentagrophytes 445 after 120 hrs by broth microdilution method; assay type: functional, organism-based; conditions: Trichophyton mentagrophytes, 445, 120 h
[39] = tested on: Mycobacterium kansasii; test: Antimycobacterial activity against Mycobacterium kansasii 6509/96 after 21 days by micromethod; assay type: functional; conditions: 6509/96, 504 h
[40] = tested on: Candida albicans; test: Antifungal activity against Candida albicans ATCC 44859 after 24 hrs by broth microdilution method; assay type: functional; conditions: ATCC 44859, 24 h
[41] = tested on: Nakaseomyces glabratus; test: Antifungal activity against Candida glabrata 20/I after 48 hrs by broth microdilution method; assay type: functional
[42] = tested on: Staphylococcus aureus; test: Antibacterial activity against Staphylococcus aureus ATCC 6538 after 24 hrs by broth microdilution method; assay type: functional; conditions: ATCC 6538, 24 h
[43] = tested on: Escherichia coli; test: Antibacterial activity against Escherichia coli ATCC 8739 after 48 hrs by broth microdilution method; assay type: functional; conditions: ATCC 8739, ATCC 8739, 48 h
[44] = tested on: Pichia kudriavzevii; test: Antifungal activity against Candida krusei E28 after 24 hrs by broth microdilution method; assay type: functional; conditions: E28, 24 h
[45] = tested on: Mycobacterium kansasii; test: Antimycobacterial activity against Mycobacterium kansasii CNCTC My 235/80 after 14 days by micromethod; assay type: functional; conditions: CNCTC My 235/80, 336 h
[46] = tested on: Mycobacterium avium; test: Antimycobacterial activity against Mycobacterium avium CNCTC My 330/88 after 21 days by micromethod; assay type: functional; conditions: CNCTC My 330/88, 504 h
[47] = tested on: Pseudomonas aeruginosa; test: Antibacterial activity against Pseudomonas aeruginosa ATCC 9027 after 48 hrs by broth microdilution method; assay type: functional; conditions: ATCC 9027, 48 h
[48] = tested on: Mycobacterium avium; test: Antimycobacterial activity against Mycobacterium avium CNCTC My 330/88 after 14 days by micromethod; assay type: functional; conditions: CNCTC My 330/88, 336 h
[49] = tested on: Mycobacterium kansasii; test: Antimycobacterial activity against Mycobacterium kansasii CNCTC My 235/80 after 7 days by micromethod; assay type: functional; conditions: CNCTC My 235/80, 168 h
[50] = tested on: Klebsiella pneumoniae; test: Antibacterial activity against extended spectrum beta-lactamase producing Klebsiella pneumoniae J 14368/08 after 24 hrs by broth microdilution method; assay type: functional; conditions: J 14368/08, 24 h

O=[N+]([O-])c1cc(CSc2nnnn2-c2ccc(Cl)c(Cl)c2)cc([N+](=O)[O-])c1
IC80 [1]: > 125 µM
IC95 [2]: > 125 µM
IC95 [3]: > 125 µM
IC50 [4]: > 125 µM
viability at 48 h, 30 µM [5]: 53%
IC95 [6]: > 125 µM
IC50 [7]: > 30 µM
IC50 [8]: > 30 µM
IC80 [9]: > 125 µM
IC95 [10]: > 125 µM
viability at 48 h, 30 µM [11]: 90%
IC80 [12]: > 125 µM
IC95 [13]: > 125 µM
IC50 [14]: 26 µM
IC95 [15]: > 125 µM
IC95 [16]: > 125 µM
IC95 [17]: > 125 µM
MIC [18]: 2 µM (≈ 0.854 µg/mL)
IC50 [19]: > 125 µM
viability at 48 h, 30 µM [20]: 67%
IC80 [21]: > 125 µM
IC95 [22]: > 125 µM
IC80 [23]: > 125 µM
viability at 48 h, 30 µM [24]: 42%
MIC [25]: 1 µM (≈ 0.427 µg/mL)
IC50 [26]: > 125 µM
MIC [27]: 1 µM (≈ 0.427 µg/mL)
IC50 [28]: > 30 µM
IC50 [29]: > 125 µM
IC80 [30]: > 125 µM
IC50 [31]: > 125 µM
MIC [32]: 1 µM (≈ 0.427 µg/mL)
IC80 [33]: > 125 µM
IC95 [34]: > 125 µM
IC95 [35]: > 125 µM
IC95 [36]: > 125 µM
MIC [37]: 2 µM (≈ 0.854 µg/mL)
IC50 [38]: > 125 µM
MIC [39]: 4 µM (≈ 1.71 µg/mL)
IC80 [40]: > 125 µM
IC80 [41]: > 125 µM
IC95 [42]: > 125 µM
IC95 [43]: > 125 µM
IC80 [44]: > 125 µM
MIC [45]: 1 µM (≈ 0.427 µg/mL)
MIC [46]: 16 µM (≈ 6.84 µg/mL)
IC95 [47]: > 125 µM
MIC [48]: 8 µM (≈ 3.42 µg/mL)
MIC [49]: 1 µM (≈ 0.427 µg/mL)
IC95 [50]: > 125 µM

— ChEMBL document CHEMBL3297661, “1-Substituted-5-[(3,5-dinitrobenzyl)sulfanyl]-1H-tetrazoles and their isosteric analogs: A new class of selective antitubercular agents active against drug-susceptible and multidrug-resistant mycobacteria” (Eur J Med Chem, 2014)
